From patent US8188270B2, “Polymorphous form of 5-chloro-N-({(5S)-2-oxo-3[4-(3-oxo-4-morpholinyl)-phenyl]-1,3-oxazolidine-5-yl}-methyl)-2-thiophene carboxamide” (Bayer Schering Pharma Aktiengesellschaft, priority 2005, dated 2012)

Assay: Solubility comparison of crystal modifications of the compound of the formula (I)
Type: physicochemical
Details: modification II versus known modification (modification I)

SMILES: O=C(NC[C@H]1CN(c2ccc(N3CCOCC3=O)cc2)C(=O)O1)c1ccc(Cl)s1 [modification II, 5-chloro-N-({(5S)-2-oxo-3-[4-(3-oxo-4-morpholinyl)-phenyl]-1,3-oxazolidin-5-yl}-methyl)-2-thiophenecarboxamide]
- solubility in comparison to the known modification: higher solubility
